Columns and labels:
bluegrass [1] = assay: Test D preemergence; type: in vivo, Poa annua; details: Poa annua, pre-emergence
Source text: (§1) Seeds of plant species selected from bluegrass (annual bluegrass, Poa annua), blackgrass (Alopecurus myosuroides), canarygrass (littleseed canarygrass, Phalaris minor), chickweed (common chickweed, Stellaria media), galium (catchweed bedstraw, Galium aparine), bromegrass, downy (downy bromegrass, Bromus tectorum), field poppy (Papaver rhoeas), field violet (Viola arvensis), green foxtail (Setaria viridis), deadnettle (henbit deadnettle, Lamium amplexicaule), Italian ryegrass (Lolium multiflorum), kochia (Kochia scoparia), lambsquarters (Chenopodium album), oilseed rape (Brassica napus), pigweed (Amaranthus retroflexus), chamomile (scentless chamomile, Matricaria inodora), Russian thistle (Salsola kali), speedwell (bird's-eye speedwell, Veronica persica), spring barley (Hordeum vulgare), spring wheat (Triticum aestivum), wild buckwheat (Polygonum convolvulus), wild mustard (Sinapis arvensis), wild oat (Avena fatua), wild radish (Raphanus raphanistrum), windgrass (Apera spica-venti), winter barley (Hordeum vulgare), and winter wheat (Triticum aestivum) were planted into a silt loam soil and treated preemergence with test chemicals formulated in a non-phytotoxic solvent mixture which included a surfactant.
(§2) At the same time, these species were planted in pots containing Redi-Earth® planting medium (Scotts Company, 14111 Scottslawn Road, Marysville, Ohio 43041) comprising spaghnum peat moss, vermiculite, wetting agent and starter nutrients and treated with postemergence applications of the test chemicals formulated in the same manner. Plants ranged in height from 2 to 18 cm (1- to 4-leaf stage). Treated plants and controls were maintained in a controlled growth environment for 7 to 21 days after which time all species were compared to controls and visually evaluated. Plant response ratings, summarized in Table D, are based on a scale of 0 to 100 where 0 is no effect and 100 is complete control. A dash (-) response means no test result.

bluegrass [2] = assay: Test D postemergence; type: in vivo, Poa annua; details: Poa annua, post-emergence, Postemergence, scale 0 to 100 (0 no effect, 100 complete control), read-out: Plant response rating, Bluegrass
Procedure, shortened: (§3)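 Visual rating vs untreated controls, 0 = no effect, 100 = complete control, taken 7–21 d after treatment. Pre: silt loam soil. Post: potting medium, plants 2–18 cm, 1–4 leaf. Formulation: non-phytotoxic solvent mix + surfactant.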

wild mustard = assay: Test D postemergence; type: in vivo, Sinapis arvensis; details: Brassica, post-emergence
Source text: as §1, §2

bromegrass, downy = assay: Test D preemergence; type: in vivo, Bromus tectorum; details: Bromus tectorum, pre-emergence
Source text: as §1, §2

kochia = assay: Test D postemergence; type: in vivo, Kochia scoparia; details: Bassia scoparia, post-emergence
Procedure, shortened: as §3

wild radish = assay: Test D preemergence; type: in vivo, Raphanus raphanistrum; details: Raphanus raphanistrum, pre-emergence
Source text: as §1, §2

green foxtail = assay: Test D postemergence; type: in vivo, Setaria viridis; details: Setaria viridis, post-emergence
Source text: as §1, §2

field violet [3] = assay: Test D preemergence; type: in vivo, Viola arvensis; details: Viola arvensis, pre-emergence
Procedure, shortened: as §3

deadnettle = assay: Test D preemergence; type: in vivo, Lamium amplexicaule; details: Lamium amplexicaule, pre-emergence
Source text: as §1, §2

field violet [4] = assay: Test D postemergence; type: in vivo, Viola arvensis; details: Viola arvensis, post-emergence
Source text: as §1, §2

windgrass = assay: Test D postemergence; type: in vivo, Apera spica-venti; details: Apera spica-venti, post-emergence
Source text: as §1, §2

Work on `FC(F)(F)c1cnn(-c2ccccc2Oc2ncc(Br)cn2)c1` [Compound 18, 5-bromo-2-[2-[4-(trifluoromethyl)-1H-pyrazol-1-yl]phenoxy]pyrimidine] yielded a pest or weed control at 16 g/ha (bluegrass [1]; 16 g ai/ha, scale 0 (no effect) to 100 (complete control), read-out: Plant response rating, Bluegrass) of 10%, a pest or weed control at 31 g/ha (bluegrass [1]; 31 g ai/ha, scale 0-100, read-out: Plant response rating, Bluegrass) of 30% and a pest or weed control at 62 g/ha (bluegrass [1]; 62 g ai/ha, scale 0-100, read-out: Plant response rating, Bluegrass) of 70%. It also gave a pest or weed control at 125 g/ha (bluegrass [1]; 125 g ai/ha, scale 0-100, read-out: Plant response rating, Bluegrass) of 100%, a pest or weed control at 250 g/ha (bluegrass [1]; 250 g ai/ha, scale 0-100, read-out: Plant response rating, Bluegrass) of 100% and a pest or weed control at 16 g/ha (bluegrass [2]; 16 g ai/ha) of 15%. The pest or weed control at 31 g/ha (bluegrass [2]; 31 g ai/ha) was 25%, the pest or weed control at 62 g/ha (bluegrass [2]; 62 g ai/ha) was 30% and the pest or weed control at 125 g/ha (bluegrass [2]; 125 g ai/ha) was 40%. The pest or weed control at 250 g/ha (bluegrass [2]; 250 g ai/ha) was 40%, the pest or weed control at 16 g/ha (wild mustard; 16 g ai/ha, scale 0-100, read-out: Plant response rating, Mustard, Wild) was 60% and the pest or weed control at 31 g/ha (wild mustard; 31 g ai/ha, scale 0 to 100 (0 no effect, 100 complete control), read-out: Plant response rating, Mustard, Wild) was 90%. For the same molecule, the pest or weed control at 62 g/ha (wild mustard; 62 g ai/ha, scale 0 to 100 (0 no effect, 100 complete control), read-out: Plant response rating, Mustard, Wild) was 70%, the pest or weed control at 125 g/ha (wild mustard; 125 g ai/ha, scale 0 to 100 (0 no effect, 100 complete control), read-out: Plant response rating, Mustard, Wild) was 80% and the pest or weed control at 250 g/ha (wild mustard; 250 g ai/ha, scale 0 to 100 (0 no effect, 100 complete control), read-out: Plant response rating, Mustard, Wild) was 100%. The pest or weed control at 16 g/ha (bromegrass, downy; 16 g ai/ha, scale 0 (no effect) to 100 (complete control), read-out: Plant response rating, Bromegrass, Downy) was 0%, the pest or weed control at 31 g/ha (bromegrass, downy; 31 g ai/ha, scale 0-100, read-out: Plant response rating, Bromegrass, Downy) was 0% and the pest or weed control at 62 g/ha (bromegrass, downy; 62 g ai/ha, scale 0-100, read-out: Plant response rating, Bromegrass, Downy) was 5%. It also gave a pest or weed control at 125 g/ha (bromegrass, downy; 125 g ai/ha, scale 0-100, read-out: Plant response rating, Bromegrass, Downy) of 10%, a pest or weed control at 250 g/ha (bromegrass, downy; 250 g ai/ha, scale 0-100, read-out: Plant response rating, Bromegrass, Downy) of 50% and a pest or weed control at 16 g/ha (kochia; 16 g ai/ha, scale 0-100, read-out: Plant response rating, Kochia) of 35%. It also gave a pest or weed control at 31 g/ha (kochia; 31 g ai/ha, scale 0 to 100 (0 no effect, 100 complete control), read-out: Plant response rating, Kochia) of 85%, a pest or weed control at 62 g/ha (kochia; 62 g ai/ha, scale 0 to 100 (0 no effect, 100 complete control), read-out: Plant response rating, Kochia) of 90% and a pest or weed control at 125 g/ha (kochia; 125 g ai/ha, scale 0 to 100 (0 no effect, 100 complete control), read-out: Plant response rating, Kochia) of 100%. The pest or weed control at 250 g/ha (kochia; 250 g ai/ha, scale 0 to 100 (0 no effect, 100 complete control), read-out: Plant response rating, Kochia) was 100%, the pest or weed control at 16 g/ha (wild radish; 16 g ai/ha, scale 0 (no effect) to 100 (complete control), read-out: Plant response rating, Radish, Wild) was 100% and the pest or weed control at 31 g/ha (wild radish; 31 g ai/ha, scale 0 (no effect) to 100 (complete control), read-out: Plant response rating, Radish, Wild) was 100%. The pest or weed control at 62 g/ha (wild radish; 62 g ai/ha, scale 0-100, read-out: Plant response rating, Radish, Wild) was 100%, the pest or weed control at 125 g/ha (wild radish; 125 g ai/ha, scale 0-100, read-out: Plant response rating, Radish, Wild) was 100% and the pest or weed control at 250 g/ha (wild radish; 250 g ai/ha, scale 0-100, read-out: Plant response rating, Radish, Wild) was 100%. The pest or weed control at 16 g/ha (green foxtail; 16 g ai/ha, scale 0-100, read-out: Plant response rating, Foxtail, Green) was 10%, the pest or weed control at 31 g/ha (green foxtail; 31 g ai/ha, scale 0 to 100 (0 no effect, 100 complete control), read-out: Plant response rating, Foxtail, Green) was 10% and the pest or weed control at 62 g/ha (green foxtail; 62 g ai/ha, scale 0 to 100 (0 no effect, 100 complete control), read-out: Plant response rating, Foxtail, Green) was 15%. The pest or weed control at 125 g/ha (green foxtail; 125 g ai/ha, scale 0 to 100 (0 no effect, 100 complete control), read-out: Plant response rating, Foxtail, Green) was 20%, the pest or weed control at 250 g/ha (green foxtail; 250 g ai/ha, scale 0 to 100 (0 no effect, 100 complete control), read-out: Plant response rating, Foxtail, Green) was 25% and the pest or weed control at 16 g/ha (field violet [3]; 16 g ai/ha, scale 0 (no effect) to 100 (complete control), read-out: Plant response rating, Field Violet) was 65%. For the same molecule, the pest or weed control at 31 g/ha (field violet [3]; 31 g ai/ha, scale 0-100, read-out: Plant response rating, Field Violet) was 70%, the pest or weed control at 62 g/ha (field violet [3]; 62 g ai/ha, scale 0-100, read-out: Plant response rating, Field Violet) was 85% and the pest or weed control at 125 g/ha (field violet [3]; 125 g ai/ha, scale 0-100, read-out: Plant response rating, Field Violet) was 85%. For the same molecule, the pest or weed control at 250 g/ha (field violet [3]; 250 g ai/ha, scale 0-100, read-out: Plant response rating, Field Violet) was 90%, the pest or weed control at 16 g/ha (deadnettle; 16 g ai/ha, scale 0 (no effect) to 100 (complete control), read-out: Plant response rating, Deadnettle) was 10% and the pest or weed control at 31 g/ha (deadnettle; 31 g ai/ha, scale 0-100, read-out: Plant response rating, Deadnettle) was 5%. For the same molecule, the pest or weed control at 62 g/ha (deadnettle; 62 g ai/ha, scale 0-100, read-out: Plant response rating, Deadnettle) was 55%, the pest or weed control at 125 g/ha (deadnettle; 125 g ai/ha, scale 0-100, read-out: Plant response rating, Deadnettle) was 70% and the pest or weed control at 250 g/ha (deadnettle; 250 g ai/ha, scale 0-100, read-out: Plant response rating, Deadnettle) was 100%. For the same molecule, the pest or weed control at 16 g/ha (field violet [4]; 16 g ai/ha, scale 0-100, read-out: Plant response rating, Field Violet) was 55%, the pest or weed control at 31 g/ha (field violet [4]; 31 g ai/ha, scale 0 to 100 (0 no effect, 100 complete control), read-out: Plant response rating, Field Violet) was 80% and the pest or weed control at 62 g/ha (field violet [4]; 62 g ai/ha, scale 0 to 100 (0 no effect, 100 complete control), read-out: Plant response rating, Field Violet) was 65%. For the same molecule, the pest or weed control at 125 g/ha (field violet [4]; 125 g ai/ha, scale 0 to 100 (0 no effect, 100 complete control), read-out: Plant response rating, Field Violet) was 80%, the pest or weed control at 250 g/ha (field violet [4]; 250 g ai/ha, scale 0 to 100 (0 no effect, 100 complete control), read-out: Plant response rating, Field Violet) was 90% and the pest or weed control at 16 g/ha (windgrass; 16 g ai/ha, scale 0-100, read-out: Plant response rating, Windgrass) was 5%. It also gave a pest or weed control at 31 g/ha (windgrass; 31 g ai/ha, scale 0 to 100 (0 no effect, 100 complete control), read-out: Plant response rating, Windgrass) of 10%, a pest or weed control at 62 g/ha (windgrass; 62 g ai/ha, scale 0 to 100 (0 no effect, 100 complete control), read-out: Plant response rating, Windgrass) of 10% and a pest or weed control at 125 g/ha (windgrass; 125 g ai/ha, scale 0 to 100 (0 no effect, 100 complete control), read-out: Plant response rating, Windgrass) of 10%. It also gave a pest or weed control at 250 g/ha (windgrass; 250 g ai/ha, scale 0 to 100 (0 no effect, 100 complete control), read-out: Plant response rating, Windgrass) of 10%.

From US9695155B2, “Herbicidal substituted pyrimidinyloxy benzene compounds” (E. I. DU PONT DE NEMOURS AND COMPANY, priority 2013, dated 2017)
